Laboratory results taken from EP1462117A1, “Method for in vivo detection of antipsychotic properties of dopamine D3 receptor ligands” (priority 2003, dated 2004).
Where “and” joins values, the source holds several entries; their conditions need not be identical. Identical values can stand only once.

Assays:
Swiss mice [1] = test: MK-801 (dizocilpine)-induced and spontaneous locomotor activity, acute treatment, actimeter; type: in vivo; details: for MK-801-induced hyperactivity: post-hoc vs saline
Method: (§1) Male Swiss mice (Iffa Credo, France), weighing 25-30 g, were housed four per cage (25 × 15 × 13 cm), on a 12 hr/12 hr light/dark cycle (lights on at 07:00 a.m.), with food and water ad libitum. […] Experiments with D3R-deficient mice were performed on male homozygous mutant mice and their wild-type littermates. […] The mice used in the present study were backcrossed 7 to 8 times.
Haloperidol (Janssen Pharmaceuticals, Beerse, Belgium) and clozapine (Novartis, Basel, Switzerland) were dissolved in a few drops of hydrochloric acid and distilled water, and the pH of the solution was adjusted to pH 5 to 6 using NaOH. […] The compounds were injected i.p. in a volume of 5 ml/kg.
(§2) All experiments were conducted between 2.00 p.m. and 6.00 p.m., and the animals were kept in the test room at least 1 h before recording their activity. […] Counts for forward horizontal activity were incremented each time the animal moved from one-half part of the cage to the other, corresponding to disruption of two crossed parallel beams distant of 14 cm. In time-course studies, counts were summed every 5 min.
(§3) Between-group differences were analyzed with the Statistica™ software using two-way analysis of variance (ANOVA) and Least Significance Difference (LSD) post-hoc test. The analysis of data obtained with the same animals evaluated on several occasions (time-course experiments), between-within univariate or multivariate ANOVA for repeated measures were used (time being the repeated measure).
To assess simply the in vivo biological activity of the novel compound at the D3 receptor, the above described test, in which hyperlocomotion induced by low doses of dizocilpine is measured, was used.

wild-type (D3R^+/+) mice = test: MK-801-induced locomotor activity in wild-type mice; type: in vivo
Method: Male Swiss mice (Iffa Credo, France), weighing 25-30 g, were housed four per cage (25 × 15 × 13 cm), on a 12 hr/12 hr light/dark cycle (lights on at 07:00 a.m.), with food and water ad libitum. […] Experiments with D3R-deficient mice were performed on male homozygous mutant mice and their wild-type littermates. […] Subsequently, these mice were backcrossed up to 8 times with C57BL6 mice. The mice used in the present study were backcrossed 7 to 8 times.
as §2
(§4) In addition, another experiment was performed with two groups of 8 mice of each genotype, injected with either saline or haloperidol (0.05 mg/kg).
as §3

[2] = tested on: D3 receptor-deficient mice (D3R^-/-); test: MK-801-induced locomotor activity in D3 receptor-deficient mice; type: in vivo; details: compound 1 mg/kg; MK-801 […]; D3R^-/- mice
Method: as §1, §2, §4, §3

Swiss mice [3] = test: Locomotor hyperactivity induced by continuous infusion of MK-801 (osmotic minipumps); type: in vivo
Method: Male Swiss mice (IFFA CREDO, France), weighing 26-28 g, were housed six per cage (25 × 15 ×13 cm), on a 12 h/12 h light/dark cycle (lights on at 07:00 a.m.), with food and water freely available. Room temperature ranged from 20° to 22°C and humidity varied between 55% and 65%.
Dizocilpine, as (+)-MK-801 maleate (Sigma), dissolved in 0.9% NaCl (saline), and its respective vehicle solution, was continuously infused via osmotic minipumps (Model 1007D, Alzet Corp.). Minipumps were filled 6 h prior to implantation and placed in a sterile saline water bath at 37°C. Taking into consideration the average weight of the mice at the time of testing, and the rate of the minipump delivery (specified by the manufacturer), the MK-801 concentration was adjusted to deliver 0.01 or 0.02 mg/kg/hr (0.48 mg/kg/day). Mice were anaesthetized with chloral hydrate (400 mg/kg i.p.), and an area on the back of the mice was shaved and cleaned with 70% ethanol. A small incision was made, a pocket beneath the skin was formed and the minipump was placed inside the pocket in each mouse. The incision was sutured, and cleaned with 70% ethanol. The mice were returned in their home cage and in about 2 h they had recovered and were active.
Once the minipumps implanted (Day 0), the locomotor activity was measured for 1h, at days 2, 4 and 7 in an actimeter (Imetronic, Pessac, France).
as §3, with “measure). Data from the resident-intruder assay were analyzed by analysis of variance (ANOVA), followed by a Tukey-Kramer Multiple Comparison post-hoc test.” for “measure).”

MK-801-treated mice = test: Resident-intruder assay in MK-801-treated mice; type: in vivo; details: MK-801 0.02 mg/kg/h for 7 days; compound 1 mg/kg i.p. 30 min prior testing; 5 min
Method: Male mice were housed individually or in groups of five for at least 1 week prior to minipump implantation (Day 0), delivering MK-801 (0.02 mg/kg/h) or saline (Sham), and were tested at day 7. As described in Dixon et al. (1994), a group-housed male (intruder) was placed in the home cage of the individually housed male (resident), and their behaviors were video recorded for 5 min. […] The videotaped behaviors of the resident or intruder male were individually scored, by an experimenter unaware of the treatment group, for time spent in social investigation (approaching, sniffing, grooming other mouse, and sexual behavior), and in escape behavior (actively avoiding the unfamiliar congener). The scores for each behavior were subsequently averaged for each group.
as §3, with “measure). Data from the resident-intruder assay were analyzed by analysis of variance (ANOVA), followed by a Tukey-Kramer Multiple Comparison post-hoc test.” for “measure).”

PD-like rats = test: Rotations in PD-like rats (6-hydroxydopamine lesion, levodopa-treated); type: in vivo; details: saline 108 ± 7
[4] = Plasma concentrations in monkeys (radioreceptor assay); type: in vivo
[5] = Plasma concentrations in mice; type: in vivo; details: after injection at a dose giving selective effects at the D3 receptor; n = 6
MPTP-intoxicated monkeys = test: Levodopa-induced dyskinesia, PD-like symptoms and locomotor activity in MPTP-intoxicated monkeys

Structure (SMILES): COc1ccccc1N1CCN(CCCCNC(=O)c2ccc3ccccc3c2)CC1 [BP 897, 1-(4-(2-Naphthoylamino)butyl)-4-(2-methoxyphenyl)-1A-piperazine]
- activity with MK-801 (Swiss mice [1]; MK-801 […], 60 min, compound i.p. 0.1, 0.3, 1 mg/kg (haloperidol 0.03, 0.1, 0.3 mg/kg), overall dose-response): dose-dependently reduced
- level to which locomotor activity in MK-801-treated mice was reduced (Swiss mice [1]; MK-801 […], level corresponds to saline-treated mice): 30-40%
- MK-801-induced hyperactivity (Swiss mice [1]; compound 0.3 mg/kg i.p., MK-801 […]): significantly reduced
- MK-801-induced hyperactivity (Swiss mice [1]; compound 1 mg/kg i.p., MK-801 […]): significantly reduced
- decrease of the activity in the presence of MK-801 (Swiss mice [1]; compound 1 mg/kg, MK-801 0.3 mg/kg, statistically non significant): 10-15%
- spontaneous activity (Swiss mice [1]; habituation phase, 30 min starting 5 min after injection, all doses tested): without any effect
- minimal active dose to reduce the hyperactivity induced by 0.3 mg/kg of MK-801 (wild-type (D3R^+/+) mice; D3R^+/+ and D3R^-/- mice): 3 mg/kg
- MK-801-induced activity (wild-type (D3R^+/+) mice; compound 1 mg/kg, MK-801 […], D3R^+/+ mice): inhibited
- spontaneous activity during the habituation phase (wild-type (D3R^+/+) mice; compound 1 mg/kg, experiment with D3R^+/+ and D3R^-/- mice): Neither of the drugs affected
- locomotor response to MK-801 [2]: no longer able to inhibit
- MK-801-induced hyperactivity (Swiss mice [3]; acute administration on the 10th day after minipump implantation, clozapine 1 mg/kg, haloperidol 0.3 mg/kg, BP 897 1 mg/kg): effect similar to that produced by clozapine or haloperidol
- spontaneous hyperactivity (Swiss mice [3]; subchronic treatment twice a day for 4.5 days from day 6, BP 897 1 mg/kg, haloperidol 0.3 mg/kg, recorded at least 6 hours after last administration): reversed
- methamphetamine-induced hyperactivity (Swiss mice [3]; subchronic treatment twice a day for 4.5 days from day 6, methamphetamine 1 mg/kg, recorded at least 6 hours after last administration): reversed
- Social investigations (MK-801-treated mice): restored
- escape behavior (MK-801-treated mice): completely normalized
- numbers of rotations (PD-like rats; BP 897 0.1 mg/kg with levodopa 50 mg/kg, n = 8): 89 ± 10
- numbers of rotations (PD-like rats; BP 897 0.3 mg/kg with levodopa 50 mg/kg, n = 17): 91 ± 12
- numbers of rotations (PD-like rats; BP 897 1.0 mg/kg with levodopa 50 mg/kg, n = 13): 68 ± 8
- numbers of rotations (PD-like rats; BP 897 3.0 mg/kg with levodopa 50 mg/kg, n = 13): 66 ± 12
- maximal plasma concentration ([4]; BP 897 5.0 or 10 mg/kg orally): 280 ± 110 nM
- time of maximal plasma concentration ([4]; monkey, in vivo): 60 min
- half-life ([4]; monkey, plasma): ~1 h
- plasma concentration [5]: 130 ± 14 nM
- attenuation of LID (MPTP-intoxicated monkeys; calculated from areas under curve, BP 897 5.0 or 10 mg/kg orally with levodopa): 66%
- on-time duration (MPTP-intoxicated monkeys; from activity counts, threshold at 30% of the maximal activity, over 5 hr): no difference with placebo
- antidyskinetic effect along repeated administrations (MPTP-intoxicated monkeys; one monkey, BP 897 12 times): did not show any obvious signs of decline
- dose reaching a maximal effect on LID (MPTP-intoxicated monkeys; tailored for each monkey, oral, with a fixed dose of levodopa, 5.0 (n = 1), 10 (n = 4)): 5.0 mg/kg and 10 mg/kg
- locomotor activity (activity counts) (MPTP-intoxicated monkeys; with levodopa): undermine the levodopa-induced activity around the dyskinesia threshold
- antiparkinson activity of the compound alone (MPTP-intoxicated monkeys; without levodopa, two dyskinetic monkeys): no antiparkinson activity
